From patent US20240109937A1, “BINDING PEPTIDES AND USES THEREOF” (The Johns Hopkins University, priority 2021, published 2024)
Where two headings read alike, the source gives them in different places. One block for each molecule: values may come before it. Bridge positions count the residues as written; N and C are the ends. Square brackets hold non-standard residues; d marks the D form. Peptide text beside a SMILES is read from it. hArg = N=C(N)NCCCC[C@H](N)C(=O)O

What was measured:
[1] = test system: HL-1 cells; test: Cell viability assay (LDH release) in HL-1 cells under Ca2+ overload; assay type: cell-based, mouse
Experimental: Calcium (Ca^2+) Overload Protocol: Rapid and sustained intracellular Ca^2+ overload was obtained by adding the Ca^2+-ionophore, calcimycin (1 μM), to HL-1 cells incubated for 10 min in HBS KV medium (1.26 mM CaCl2, 0.81 mM MgSO4, 0.44 mM KH2PO4, 142 mM KCl, 0.27 mM K2HPO4, 5.55 mM D-glucose, 1 mM Na3VO4, 20 mM Hepes pH 7.4). To monitor intracellular Ca^2+ variations, HL-1 cells were loaded with 5 μM Fluo-4 FF AM (Molecular Probes) in HBS Na (Sigma) for 30 min before the media was replaced with HBS KV. […] Cell Viability Assay: HL-1 plasma membrane integrity was assessed by measuring lactate dehydrogenase (LDH) release in the culture supernatant. An enzymatic assay evaluated LDH activity. Samples of the cell-free culture supernatant were collected at indicated times in Figures/Figure Legends, while cells were lysed in 1% (w/v) Triton X-100 at the end of each experiment to estimate the remaining cellular content of LDH. The LDH activity at each time point was expressed as a percentage of total LDH activity.

[2] = biological target: T1, CAPN1 (Mus musculus, UniProt O35350); test: Calpain activity assay (Suc-LLVY-AMC cleavage) in HL-1 cells under Ca2+ overload; assay type: cell-based
T1 construct: endogenous in cells; host or cells: HL-1 cardiomyocytes
T1 sequence (O35350 1-713): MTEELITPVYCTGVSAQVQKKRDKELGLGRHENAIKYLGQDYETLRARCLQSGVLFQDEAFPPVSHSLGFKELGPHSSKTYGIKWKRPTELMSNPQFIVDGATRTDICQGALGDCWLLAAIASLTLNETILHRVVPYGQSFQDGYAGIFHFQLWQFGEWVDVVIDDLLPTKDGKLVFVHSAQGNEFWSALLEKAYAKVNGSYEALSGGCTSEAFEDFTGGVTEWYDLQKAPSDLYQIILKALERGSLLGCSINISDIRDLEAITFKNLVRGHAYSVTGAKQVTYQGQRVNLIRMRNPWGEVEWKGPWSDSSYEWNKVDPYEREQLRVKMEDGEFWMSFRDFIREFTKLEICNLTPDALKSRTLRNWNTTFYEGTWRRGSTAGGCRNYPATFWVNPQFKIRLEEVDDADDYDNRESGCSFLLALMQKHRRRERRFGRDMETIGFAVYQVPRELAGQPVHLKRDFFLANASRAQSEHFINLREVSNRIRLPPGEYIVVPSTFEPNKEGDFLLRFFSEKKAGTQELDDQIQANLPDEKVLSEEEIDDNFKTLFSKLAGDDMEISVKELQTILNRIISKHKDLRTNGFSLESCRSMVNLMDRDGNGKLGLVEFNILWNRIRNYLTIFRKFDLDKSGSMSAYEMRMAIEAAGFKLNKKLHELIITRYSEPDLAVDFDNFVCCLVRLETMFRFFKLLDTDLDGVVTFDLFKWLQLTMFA
T1 sequence (O88456 1-268 partner): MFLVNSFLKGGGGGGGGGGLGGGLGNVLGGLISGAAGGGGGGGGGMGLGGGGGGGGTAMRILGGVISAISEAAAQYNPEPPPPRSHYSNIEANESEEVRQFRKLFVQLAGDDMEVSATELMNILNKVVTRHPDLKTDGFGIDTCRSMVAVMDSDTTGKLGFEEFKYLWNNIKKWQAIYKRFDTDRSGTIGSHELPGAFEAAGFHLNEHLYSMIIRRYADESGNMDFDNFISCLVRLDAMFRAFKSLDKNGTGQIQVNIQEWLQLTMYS
Experimental: Calcium (Ca^2+) Overload Protocol: Rapid and sustained intracellular Ca^2+ overload was obtained by adding the Ca^2+-ionophore, calcimycin (1 μM), to HL-1 cells incubated for 10 min in HBS KV medium (1.26 mM CaCl2, 0.81 mM MgSO4, 0.44 mM KH2PO4, 142 mM KCl, 0.27 mM K2HPO4, 5.55 mM D-glucose, 1 mM Na3VO4, 20 mM Hepes pH 7.4). To monitor intracellular Ca^2+ variations, HL-1 cells were loaded with 5 μM Fluo-4 FF AM (Molecular Probes) in HBS Na (Sigma) for 30 min before the media was replaced with HBS KV. […] Calpain (CAPN) Activity Assay: […] HL-1 cells were grown in 24-well plates and incubated for 30 min in HBS Na (Sigma) with 25 μM Suc-LLVY-AMC (SEQ ID NO: 81) and 0.01% pluronic F127 (Molecular Probes) before treatment protocols. […] CAPN activity was inhibited via the addition of either calpeptin (Tocris) or PD150606 (Calbiochem) in the incubation medium.

[3] = biological target: T1, CAPN1; test: Western blot of CAPN1 in purified mitochondria from HL-1 cells under Ca2+ overload; assay type: cell-based; details: Ca2+ overload (HBS KVC), calpeptin 50 μM, PD150606 10 μM
Experimental: (§1) Calcium (Ca^2+) Overload Protocol: Rapid and sustained intracellular Ca^2+ overload was obtained by adding the Ca^2+-ionophore, calcimycin (1 μM), to HL-1 cells incubated for 10 min in HBS KV medium (1.26 mM CaCl2, 0.81 mM MgSO4, 0.44 mM KH2PO4, 142 mM KCl, 0.27 mM K2HPO4, 5.55 mM D-glucose, 1 mM Na3VO4, 20 mM Hepes pH 7.4). To monitor intracellular Ca^2+ variations, HL-1 cells were loaded with 5 μM Fluo-4 FF AM (Molecular Probes) in HBS Na (Sigma) for 30 min before the media was replaced with HBS KV. The fluorescence was recorded using a fluorimeter plate reader (Fluoroskan Ascent Labsystem) at wavelength settings of 485/530 nm for excitation/emission, respectively.
Mitochondria Isolation Protocol: Mitochondria were isolated from HL-1 cells in percoll density gradient. Briefly, 30×10^6 adherent cells were harvested with Trypsin/EDTA, centrifuged at 500×g for 10 min, washed in buffer A (100 mM sucrose, 1 mM EGTA, 20 mM MOPS, pH 7.4, and 1 mg/mL BSA) before cell disruption with a Dounce homogenizer. The suspension was centrifuged twice at 500× g for 5 min and the resulting supernatant at 10,000×g for 10 min at 4° C. The pellet was re-suspended in buffer B (300 mM sucrose, 1 mM EGTA, 20 mM MOPS pH 7.4, 1 mg/mL BSA), and the homogenate was layered on a two-phase (25% and 40%) percoll density gradient. […]

[4] = test system: HL-1 cells; test: Intracellular Ca2+ (Fluo4 FF fluorescence) in HL-1 cells; assay type: cell-based, mouse; details: Calcimycin 1 μM in HBS KV medium
Experimental: as §1, with “KV.” for “KV. The fluorescence was recorded using a fluorimeter plate reader (Fluoroskan Ascent Labsystem) at wavelength settings of 485/530 nm for excitation/emission, respectively.”

[5] = test system: HL-1 cells; test: Mitochondrial membrane potential (JC-1) assay in HL-1 cells; assay type: cell-based, mouse; details: Calcimycin 1 μM in HBS KV medium
Experimental: Calcium (Ca^2+) Overload Protocol: Rapid and sustained intracellular Ca^2+ overload was obtained by adding the Ca^2+-ionophore, calcimycin (1 μM), to HL-1 cells incubated for 10 min in HBS KV medium (1.26 mM CaCl2, 0.81 mM MgSO4, 0.44 mM KH2PO4, 142 mM KCl, 0.27 mM K2HPO4, 5.55 mM D-glucose, 1 mM Na3VO4, 20 mM Hepes pH 7.4). To monitor intracellular Ca^2+ variations, HL-1 cells were loaded with 5 μM Fluo-4 FF AM (Molecular Probes) in HBS Na (Sigma) for 30 min before the media was replaced with HBS KV. […] Mitochondrial Membrane Potential (MMP) Assay: MMP was determined using the potentiometric probe, JC-1. JC-1 (Molecular Probes) is a cationic carbocyanine dye that selectively accumulates in polarized mitochondria, where it forms red fluorescent aggregates (excitation 485/emission 590 nm). Upon mitochondrial depolarization, JC-1 is released into the cytosol, whereas a monomer emits green fluorescence (excitation 485 nm/emission 520 nm). Therefore, MMP variations were monitored as the ratio of fluorescent emissions at 590/520 nm using a fluorimeter plate reader (Fluoroskan Ascent Labsystem). HL-1 cells were incubated with JC-1 (1.5 μM) for 30 min at 37° C. in HBS Na before treatment protocols.

[6] = biological target: T2, PPIA (Homo sapiens, UniProt P62937); test: KD determination of cyclic peptides derived from Formula (I); assay type: binding
T2 sequence (P62937 whole entry, species assumed): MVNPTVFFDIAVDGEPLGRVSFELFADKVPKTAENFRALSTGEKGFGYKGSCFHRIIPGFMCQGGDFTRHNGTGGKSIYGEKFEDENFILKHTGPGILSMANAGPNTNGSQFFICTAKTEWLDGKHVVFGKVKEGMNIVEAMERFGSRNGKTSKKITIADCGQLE

[7] = biological target: T2, PPIA; details: read-out: KD, binds and sequesters cytosolic PPIA; cited from earlier work
[8] = Ca2+ overload in HBS KV medium, 5 mM EGTA in incubation media
[9] = Calcimycin 1 μM in HBS KV medium, dose-dependent response

Molecule: O=C(O)CN(CCOCCOCCN(CC(=O)O)CC(=O)O)CC(=O)O [EGTA]
- cell death (LDH release) [1, 8]: attenuated
- CAPN1 activation [2, 8]: attenuated

Molecule: O=C(O)/C(S)=C/c1ccc(I)cc1 [PD150606]
- mitochondrial CAPN1 translocation [3]: failed to prevent
- reduction in cell death (LDH release) [1, 9]: ~15%
- kinetics of cytosolic Ca2+ accumulation [4]: neither of them had an impact
- Ca2+ overload-induced decrease in mitochondrial membrane potential (MMP) [5]: reduced ability to restore MMP
- reduction in Ca2+ overload-induced CAPN1 substrate hydrolysis [2, 9]: ~60%

- Kd [6]: > 1000 µM
Molecule: CC[C@H](C)[C@@H]1NC(=O)[C@@H](N)CSSC[C@@H](C(N)=O)NC(=O)[C@H](C(C)C)NC(=O)[C@H](CCCCN)NC(=O)[C@H](CCCNC(=N)N)NC(=O)CNC(=O)[C@H](CC(=O)O)NC(=O)[C@H](CCCCNC(=N)N)NC(=O)[C@H](CC(C)C)NC(=O)[C@H](CCCCN)NC1=O [X4: hR] (H-CIKL[hArg]DGRKVC-NH2; disulfide 1-11)

- Kd [6]: > 1000 µM
Molecule: CC[C@H](C)[C@@H]1NC(=O)[C@@H](N)CSSC[C@@H](C(N)=O)NC(=O)[C@H](C(C)C)NC(=O)[C@H](CCCCNC(=N)N)NC(=O)[C@H](CCCNC(=N)N)NC(=O)CNC(=O)[C@H](CC(=O)O)NC(=O)[C@H](CCCCN)NC(=O)[C@H](CC(C)C)NC(=O)[C@H](CCCCN)NC1=O [X8: hR] (H-CIKLKDGR[hArg]VC-NH2; disulfide 1-11)

Molecule: QSVGVSSGKLLIKLKDGRKVETDHI [AIF (370-394), Linear peptide, 25 amino acids long]
- Kd [7]: 12 µM
